Literature values in US7365077B2, “Piperazine bis-amide derivatives and their use as antagonists of the orexin receptor” (SmithKline Beecham p.l.c., priority 2001, dated 2008).
No end group written: not given here.

Tests used:
[1] = test system: freely-feeding rats; conditions: central administration, 4 hour time period
[2] = test system: orexin receptors; conditions: central administration at the onset of the normal sleep period, rat

For “orexin-A: Peptide ligand (agonist) of the orexin receptors; human sequence given in b87 (QPLPDCCRQKTCSCRLYELLHGAGNHAAGILTL; ends and bridges not checked; cysteine pairing not given here; UniProt O43612 34-66, looked up)”, the “increase in food intake over control rats receiving vehicle” value [1] is listed as “approximately four-fold” and the effect on arousal [2] is listed as “dose-related increase in arousal”.
